Reference: ChEMBL document CHEMBL6074654, “Inhibitors targeting the PWWP domain-containing proteins” (Eur J Med Chem, 2024)
pIC50: −log10 of the molar value.

Each molecule was assayed against T1, Histone-lysine N-methyltransferase NSD2 (Homo sapiens, UniProt O96028) (assay: Inhibition of NSD2-SET domain (unknown origin)).
T1 sequence (O96028 whole entry): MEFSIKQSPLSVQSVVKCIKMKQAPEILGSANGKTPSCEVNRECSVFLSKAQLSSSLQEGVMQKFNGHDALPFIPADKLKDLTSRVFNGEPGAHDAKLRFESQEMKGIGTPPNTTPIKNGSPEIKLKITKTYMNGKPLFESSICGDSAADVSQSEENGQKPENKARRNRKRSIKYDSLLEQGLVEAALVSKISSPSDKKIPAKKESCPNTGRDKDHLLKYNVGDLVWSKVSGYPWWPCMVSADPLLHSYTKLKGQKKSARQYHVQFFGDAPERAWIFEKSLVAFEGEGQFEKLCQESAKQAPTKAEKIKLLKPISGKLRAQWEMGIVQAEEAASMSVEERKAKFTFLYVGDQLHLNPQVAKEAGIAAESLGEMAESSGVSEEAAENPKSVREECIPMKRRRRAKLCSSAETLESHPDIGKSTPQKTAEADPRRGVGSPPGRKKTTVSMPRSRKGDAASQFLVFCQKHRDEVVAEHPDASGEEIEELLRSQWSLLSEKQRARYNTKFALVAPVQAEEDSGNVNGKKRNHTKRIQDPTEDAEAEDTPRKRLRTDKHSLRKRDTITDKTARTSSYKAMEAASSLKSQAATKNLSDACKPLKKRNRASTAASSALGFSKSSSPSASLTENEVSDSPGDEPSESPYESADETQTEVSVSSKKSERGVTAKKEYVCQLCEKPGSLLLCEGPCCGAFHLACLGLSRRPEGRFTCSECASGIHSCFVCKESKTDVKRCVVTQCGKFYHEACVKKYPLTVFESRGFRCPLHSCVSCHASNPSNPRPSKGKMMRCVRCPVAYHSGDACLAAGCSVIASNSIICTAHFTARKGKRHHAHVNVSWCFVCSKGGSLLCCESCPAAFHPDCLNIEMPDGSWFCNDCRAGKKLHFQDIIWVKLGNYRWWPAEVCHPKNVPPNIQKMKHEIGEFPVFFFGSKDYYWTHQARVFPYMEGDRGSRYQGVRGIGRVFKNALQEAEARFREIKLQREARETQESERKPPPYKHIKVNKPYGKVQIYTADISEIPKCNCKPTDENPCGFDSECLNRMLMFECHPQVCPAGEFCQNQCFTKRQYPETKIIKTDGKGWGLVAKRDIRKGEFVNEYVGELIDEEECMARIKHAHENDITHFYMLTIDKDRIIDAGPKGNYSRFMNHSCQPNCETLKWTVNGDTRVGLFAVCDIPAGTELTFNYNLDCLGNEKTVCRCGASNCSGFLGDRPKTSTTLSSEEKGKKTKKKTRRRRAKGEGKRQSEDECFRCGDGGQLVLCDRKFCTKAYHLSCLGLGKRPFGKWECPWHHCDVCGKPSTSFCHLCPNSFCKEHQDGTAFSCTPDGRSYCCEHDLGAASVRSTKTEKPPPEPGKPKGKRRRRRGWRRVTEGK

Row | pIC50 | SMILES
1 | 5.48 | CCCN[C@@H](CC[C@H](N)C(=O)O)C[C@@H]1O[C@@H](n2cnc3c(N)ncnc32)[C@H](O)[C@@H]1O

These molecules were tested on U2OS (assay: Antiproliferative activity against human U2OS cells).

Row | pIC50 | SMILES
2 | 5.92 | O=C1COc2cc(C(=O)N(Cc3ccc(C(=O)Nc4ccncn4)cc3)C3CC3)ccc2N1

The molecules below were run against Histone-lysine N-methyltransferase, H3 lysine-36 specific (Homo sapiens, UniProt Q96L73) (assay: Inhibition of NSD1-SET (unknown origin)).
Histone-lysine N-methyltransferase, H3 lysine-36 specific, sequence (Q96L73 whole entry): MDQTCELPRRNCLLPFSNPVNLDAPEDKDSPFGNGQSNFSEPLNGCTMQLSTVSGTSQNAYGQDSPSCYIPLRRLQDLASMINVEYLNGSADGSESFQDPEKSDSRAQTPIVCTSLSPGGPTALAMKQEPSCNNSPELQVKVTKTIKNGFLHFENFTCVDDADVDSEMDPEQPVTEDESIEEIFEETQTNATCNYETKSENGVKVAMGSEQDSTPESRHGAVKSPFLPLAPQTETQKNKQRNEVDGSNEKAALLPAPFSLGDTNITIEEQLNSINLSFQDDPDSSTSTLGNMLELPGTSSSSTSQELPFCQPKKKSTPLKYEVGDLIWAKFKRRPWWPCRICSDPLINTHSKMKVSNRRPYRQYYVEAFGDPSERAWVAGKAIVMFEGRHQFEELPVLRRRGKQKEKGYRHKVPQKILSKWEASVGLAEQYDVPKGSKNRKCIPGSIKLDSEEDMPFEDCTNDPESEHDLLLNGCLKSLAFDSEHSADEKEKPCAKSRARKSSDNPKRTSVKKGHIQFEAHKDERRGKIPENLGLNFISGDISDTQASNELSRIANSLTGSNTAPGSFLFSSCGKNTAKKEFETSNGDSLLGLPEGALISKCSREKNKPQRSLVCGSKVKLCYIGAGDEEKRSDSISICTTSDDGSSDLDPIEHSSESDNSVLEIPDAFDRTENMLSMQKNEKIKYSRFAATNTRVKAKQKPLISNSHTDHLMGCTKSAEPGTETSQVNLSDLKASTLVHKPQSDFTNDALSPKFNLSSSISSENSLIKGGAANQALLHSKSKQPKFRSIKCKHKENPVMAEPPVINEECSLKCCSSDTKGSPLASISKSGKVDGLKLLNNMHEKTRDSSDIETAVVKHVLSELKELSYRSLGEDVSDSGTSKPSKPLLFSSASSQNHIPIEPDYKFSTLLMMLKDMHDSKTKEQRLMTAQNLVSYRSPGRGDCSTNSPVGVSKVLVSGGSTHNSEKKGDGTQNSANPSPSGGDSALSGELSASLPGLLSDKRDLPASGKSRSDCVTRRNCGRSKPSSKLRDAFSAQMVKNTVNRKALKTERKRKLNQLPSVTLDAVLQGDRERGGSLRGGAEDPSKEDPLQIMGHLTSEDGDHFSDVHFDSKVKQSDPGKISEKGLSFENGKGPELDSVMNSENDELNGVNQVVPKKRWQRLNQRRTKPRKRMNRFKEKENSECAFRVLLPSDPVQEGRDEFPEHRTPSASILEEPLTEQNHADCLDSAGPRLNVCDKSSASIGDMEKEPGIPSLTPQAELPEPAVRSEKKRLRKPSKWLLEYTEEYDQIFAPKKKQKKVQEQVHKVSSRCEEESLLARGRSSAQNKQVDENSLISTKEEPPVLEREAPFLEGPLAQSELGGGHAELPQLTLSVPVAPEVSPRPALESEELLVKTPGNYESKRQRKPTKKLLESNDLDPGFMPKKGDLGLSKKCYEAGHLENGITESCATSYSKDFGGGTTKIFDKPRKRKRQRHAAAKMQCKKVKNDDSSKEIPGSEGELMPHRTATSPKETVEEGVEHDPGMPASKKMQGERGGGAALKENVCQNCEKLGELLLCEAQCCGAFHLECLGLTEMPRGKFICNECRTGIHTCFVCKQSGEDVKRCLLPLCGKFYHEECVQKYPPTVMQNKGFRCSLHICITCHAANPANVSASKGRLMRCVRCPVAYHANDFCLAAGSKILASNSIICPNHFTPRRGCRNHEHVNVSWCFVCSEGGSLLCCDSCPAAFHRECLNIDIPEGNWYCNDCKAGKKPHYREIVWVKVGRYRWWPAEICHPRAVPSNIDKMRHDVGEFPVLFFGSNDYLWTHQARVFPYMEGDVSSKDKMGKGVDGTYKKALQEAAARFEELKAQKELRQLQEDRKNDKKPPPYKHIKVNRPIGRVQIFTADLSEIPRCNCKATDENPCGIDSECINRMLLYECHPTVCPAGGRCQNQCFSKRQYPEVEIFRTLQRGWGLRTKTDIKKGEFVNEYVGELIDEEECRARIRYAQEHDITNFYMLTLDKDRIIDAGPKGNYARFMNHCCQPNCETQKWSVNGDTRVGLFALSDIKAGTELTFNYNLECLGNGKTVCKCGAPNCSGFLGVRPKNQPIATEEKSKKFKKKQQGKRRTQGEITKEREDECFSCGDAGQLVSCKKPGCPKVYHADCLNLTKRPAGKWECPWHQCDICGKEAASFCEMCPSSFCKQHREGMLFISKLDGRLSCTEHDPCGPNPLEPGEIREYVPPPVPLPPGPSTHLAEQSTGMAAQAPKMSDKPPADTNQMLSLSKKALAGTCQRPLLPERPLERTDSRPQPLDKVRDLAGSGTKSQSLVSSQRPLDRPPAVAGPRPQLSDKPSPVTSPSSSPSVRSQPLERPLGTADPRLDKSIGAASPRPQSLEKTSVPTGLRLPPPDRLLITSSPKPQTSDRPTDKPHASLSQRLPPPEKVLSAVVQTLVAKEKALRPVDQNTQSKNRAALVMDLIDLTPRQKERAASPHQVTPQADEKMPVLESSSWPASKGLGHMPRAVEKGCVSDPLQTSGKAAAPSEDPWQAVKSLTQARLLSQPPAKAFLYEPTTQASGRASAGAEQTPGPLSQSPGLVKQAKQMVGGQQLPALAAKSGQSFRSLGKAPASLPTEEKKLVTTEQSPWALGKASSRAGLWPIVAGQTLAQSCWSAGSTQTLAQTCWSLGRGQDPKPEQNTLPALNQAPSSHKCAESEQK

Row | SMILES | pIC50
3 | CC(C)C[C@H]1C(=O)N2CCCC2[C@]2(O)O[C@](NC(=O)[C@@H]3C=C4c5cccc6[nH]cc(c56)CC4N(C)C3)(C(C)C)C(=O)N12 (some centres not stated) | 5.31
4 | Cc1cc(/C=C/c2ccc3cc(N(C)C)ccc3[n+]2C)c(C)n1-c1ccccc1 | 5.59
5 | O=C(O)c1ccccc1-c1c2cc(I)c(=O)c(I)c-2oc2c(I)c(O)c(I)cc12 | 6.47
6 | CN1C[C@H](C(=O)N[C@]2(C)C[C@@]3(O)C4CCCN4C(=O)[C@H](Cc4ccccc4)N3C2=O)C=C2c3cccc4[nH]cc(c34)C[C@H]21 (some centres not stated) | 5.23
7 | C[C@H]1COC2=C1C(=O)C(=O)c1c2ccc2c1CCCC2(C)C [CRYPTOTANSHINONE] | 5.46
8 | O=C1C=CC(=O)c2ccccc21 [NAPHTHOQUINONE] | 5.70
9 | CC1=CC(=O)c2c(O)cccc2C1=O [PLUMBAGIN] | 5.24
10 | COc1cc(NC(C)CCCN)c2ncccc2c1 (configuration not stated) [PRIMAQUINE] | 5.74
11 | Cc1coc2c1C(=O)C(=O)c1c-2ccc2c1CCCC2(C)C [TANSHINONE IIA] | 5.85
12 | Cc1coc2c1C(=O)C(=O)c1c-2ccc2c(C)cccc12 [TANSHINONE I] | 5.51

The molecules below were run against DNA (cytosine-5)-methyltransferase 3A (Homo sapiens, UniProt Q9Y6K1) (assay: Inhibition of DNMT3A (unknown origin)).

Row | SMILES | pIC50
13 | Oc1cc(/C=N/Nc2nc3ccccc3s2)cc(O)c1O | 5.80
14 | O=C1C=CC(=O)N1CCc1c[nH]c2ccccc12 | 5.49

Other lines, results leading:

Row | pIC50 | SMILES
15 | 4.44 | COc1ccc(Cl)cc1C(=O)NCCc1ccc(O)cc1
16 | 5.09 | CCN(CC)CCNC(=O)c1ccc(NCCCCCCCCCCCCN2C(=O)c3ccccc3C2=O)cc1
17 | 6.52 | c1ccc2c(NCCNc3ncnc4cc(OCC5CCN(CCNc6ccnc7ccccc67)CC5)ccc34)cccc2c1
18 | 4.55 | O=C(O)C(Cc1c[nH]c2ccccc12)N1C(=O)C=CC1=O (configuration not stated)

What follows are molecules tested against Protein cereblon/Histone-lysine N-methyltransferase NSD2 (Homo sapiens, UniProt O96028+Q96SW2) (assay: PROTAC activity at CRBN/NSD2 in human VCaP cells assessed as induction of NSD2 degradation incubated for 24 hrs by immunoblot analysis).
Protein cereblon/Histone-lysine N-methyltransferase NSD2, sequence (Q96SW2 whole entry, one chain of several): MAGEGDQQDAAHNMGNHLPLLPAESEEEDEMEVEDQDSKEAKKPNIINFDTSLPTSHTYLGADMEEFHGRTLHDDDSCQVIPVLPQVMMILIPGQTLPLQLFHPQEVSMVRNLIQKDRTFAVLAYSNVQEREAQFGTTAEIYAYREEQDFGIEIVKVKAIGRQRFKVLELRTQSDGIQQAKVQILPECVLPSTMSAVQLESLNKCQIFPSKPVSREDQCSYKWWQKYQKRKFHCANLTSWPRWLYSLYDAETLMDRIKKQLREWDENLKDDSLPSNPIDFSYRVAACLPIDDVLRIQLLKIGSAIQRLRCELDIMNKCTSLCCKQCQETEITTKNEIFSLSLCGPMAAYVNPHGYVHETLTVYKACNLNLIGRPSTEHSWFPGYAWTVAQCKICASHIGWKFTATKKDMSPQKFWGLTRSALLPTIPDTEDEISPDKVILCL
Assay type: cell-based

Row | DC50 [µM] | SMILES
19 | 1.2 | N=C(N)NCCC[C@H](N)C(=O)NCCCCCCNC(=O)c1ccc(NC(=O)c2ccc(CN(C(=O)c3ccc4c(c3)OCC(=O)N4)C3CC3)cc2)cc1

Each molecule was assayed against DNA (cytosine-5)-methyltransferase 1 (Homo sapiens, UniProt P26358) (assay: Inhibition of DNMT1 (unknown origin)).
DNA (cytosine-5)-methyltransferase 1, sequence (P26358 whole entry): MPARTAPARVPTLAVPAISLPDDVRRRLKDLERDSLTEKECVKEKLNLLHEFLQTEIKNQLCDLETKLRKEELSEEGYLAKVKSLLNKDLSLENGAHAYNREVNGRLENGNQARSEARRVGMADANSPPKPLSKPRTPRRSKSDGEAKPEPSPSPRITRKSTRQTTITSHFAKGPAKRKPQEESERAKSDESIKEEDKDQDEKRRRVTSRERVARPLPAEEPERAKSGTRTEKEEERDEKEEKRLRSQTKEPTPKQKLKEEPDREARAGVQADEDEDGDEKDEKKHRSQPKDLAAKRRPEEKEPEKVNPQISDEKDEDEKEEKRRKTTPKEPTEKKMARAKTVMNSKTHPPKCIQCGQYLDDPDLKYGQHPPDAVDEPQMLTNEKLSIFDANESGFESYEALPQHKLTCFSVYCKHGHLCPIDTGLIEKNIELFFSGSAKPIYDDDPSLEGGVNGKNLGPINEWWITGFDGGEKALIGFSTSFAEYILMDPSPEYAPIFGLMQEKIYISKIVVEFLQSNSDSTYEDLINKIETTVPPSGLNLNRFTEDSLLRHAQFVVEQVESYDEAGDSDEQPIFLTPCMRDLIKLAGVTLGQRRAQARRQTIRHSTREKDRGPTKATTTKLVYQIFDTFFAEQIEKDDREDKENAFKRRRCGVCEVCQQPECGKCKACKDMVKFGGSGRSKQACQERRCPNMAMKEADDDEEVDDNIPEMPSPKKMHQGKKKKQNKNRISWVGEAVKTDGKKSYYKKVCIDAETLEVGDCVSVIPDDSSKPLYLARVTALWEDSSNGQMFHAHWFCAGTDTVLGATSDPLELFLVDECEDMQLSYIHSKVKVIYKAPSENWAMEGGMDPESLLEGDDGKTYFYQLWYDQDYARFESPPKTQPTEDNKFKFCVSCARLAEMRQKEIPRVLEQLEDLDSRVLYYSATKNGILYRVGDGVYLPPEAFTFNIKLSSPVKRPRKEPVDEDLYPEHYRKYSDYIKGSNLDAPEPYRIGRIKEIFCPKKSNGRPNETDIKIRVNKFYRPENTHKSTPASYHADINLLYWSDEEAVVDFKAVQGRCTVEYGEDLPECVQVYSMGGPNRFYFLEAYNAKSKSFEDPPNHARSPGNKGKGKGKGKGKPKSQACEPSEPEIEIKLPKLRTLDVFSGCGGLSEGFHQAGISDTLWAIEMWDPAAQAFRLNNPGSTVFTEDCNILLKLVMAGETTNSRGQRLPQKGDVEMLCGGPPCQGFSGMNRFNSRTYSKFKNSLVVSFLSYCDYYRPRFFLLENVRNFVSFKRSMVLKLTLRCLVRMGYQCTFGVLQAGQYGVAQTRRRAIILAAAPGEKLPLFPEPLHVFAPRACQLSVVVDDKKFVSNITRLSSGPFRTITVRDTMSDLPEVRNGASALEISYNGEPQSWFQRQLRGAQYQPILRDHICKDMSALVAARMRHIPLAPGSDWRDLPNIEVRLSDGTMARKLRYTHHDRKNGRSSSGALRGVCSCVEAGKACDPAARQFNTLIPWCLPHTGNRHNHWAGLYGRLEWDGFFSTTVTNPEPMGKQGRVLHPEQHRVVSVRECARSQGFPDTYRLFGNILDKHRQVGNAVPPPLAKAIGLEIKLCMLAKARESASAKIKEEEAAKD

Row | pIC50 | SMILES
20 | 5.31 | CCN(CC)CCNC(=O)c1ccc(NCCCCCCCCCCCCN2C(=O)c3ccccc3C2=O)cc1
21 | 4.70 | c1ccc2c(NCCNc3ncnc4cc(OCC5CCN(CCNc6ccnc7ccccc67)CC5)ccc34)cccc2c1
22 | 4.72 | O=C1C=CC(=O)N1CCc1c[nH]c2ccccc12
